Reference: the supplement of paper PMC11208160

Assay: recombinant UMI read abundance after kanamycin selection (control-corrected) (log10(CPM+1)); higher = more efficient recombination; extreme values may be limits of the assay; sequences stand for … in AGTGCAGAGAAAATCGGCCAGTTTTCTCTGCCTGCAGTCCGCATGCCGTGGGACCCCTTGGGTTCTAACCTGTTGCCTAGATTTATGCAGCGGACTGCCTTTCTCCCAAAGTGATAAACCGG…AGGTTGGTTTCACT; site = the 11-nt donor
Summary of the method: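 Pooled Escherichia coli screen of donor and donor-binding-loop pairs for the IS621 bridge recombinase. Each pair sits with a 12-nt UMI on a plasmid carrying a promoterless kanamycin gene. The library was co-electroporated with a target plasmid encoding a fixed target and T7-inducible recombinase, then plated with IPTG (0.07 mM) plus kanamycin, or unselected, each in two replicates. Recombinant UMIs were PCR-amplified across the donor–target junction and sequenced. Counts became CPM, averaged over replicates, scaled by control-derived factors and reported as log10(CPM+1).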
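Also: IS621 bridge recombinase in Escherichia coli cells against a fixed T5 target plasmid.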

| Sequence | recombinant UMI read abundance (log10) |
| --- | --- |
| CCCTTCTCATGGACCGGTTTTCCCGGTAATCCGTATTTGGT (site CCCTTCTCTGC) | 0 |
| CCCTTCTCATGGACCGGTTTTCCCGGTAATCCGTATTTGGT (site CCCTTCTCTTC) | 0.121 |
| CCCTTGGCATGGACCGGTTTTCCCGGTAATCCGTATTTGGA (site CACTTGGCTTC) | 0.0394 |
| CCCTTGGCATGGACCGGTTTTCCCGGTAATCCGTATTTGGA (site CCCTTGGCTTC) | 0.107 |
| CCCTTGGCATGGACCGGTTTTCCCGGTAATCCGTATTTGGA (site CGCTTGGCTTC) | 0.0127 |
| CCCTTGGCATGGACCGGTTTTCCCGGTAATCCGTATTTGGA (site CTCTTGGCTTC) | 0.00833 |
| CCGAAAACATGGACCGGTTTTCCCGGTAATCCGTATTTGCT (site ACGAAAACTAG) | 0 |
| CCGAAAACATGGACCGGTTTTCCCGGTAATCCGTATTTGCT (site CCGAAAACTAG) | 0.973 |
| CCGAAAACATGGACCGGTTTTCCCGGTAATCCGTATTTGCT (site GCGAAAACTAG) | 0 |
| CCGAAAACATGGACCGGTTTTCCCGGTAATCCGTATTTGCT (site TCGAAAACTAG) | 0 |
| CCGAAACCATGGACCGGTTTTCCCGGTAATCCGTATTTGCG (site CCGAAACCTCG) | 0 |
| CCGAATCCATGGACCGGTTTTCCCGGTAATCCGTATTTGTT (site CAGAATCCTAA) | 0 |
| CCGAATCCATGGACCGGTTTTCCCGGTAATCCGTATTTGTT (site CCGAATCCTAA) | 0.251 |
| CCGAATCCATGGACCGGTTTTCCCGGTAATCCGTATTTGTT (site CGGAATCCTAA) | 0 |
| CCGAATCCATGGACCGGTTTTCCCGGTAATCCGTATTTGTT (site CTGAATCCTAA) | 0.00536 |
| CCGACCGCATGGACCGGTTTTCCCGGTAATCCGTATTTGTA (site CCGACCGCTTA) | 0.904 |
| CCGAGTCCATGGACCGGTTTTCCCGGTAATCCGTATTTGAA (site CCGAGTCCTTT) | 0.417 |
| CCGATTACATGGACCGGTTTTCCCGGTAATCCGTATTTGCT (site CCGATTACTAG) | 0.743 |
| CCGATTACATGGACCGGTTTTCCCGGTAATCCGTATTTGCT (site CCGCTTACTAG) | 0 |
| CCGATTACATGGACCGGTTTTCCCGGTAATCCGTATTTGCT (site CCGGTTACTAG) | 0 |
| CCGATTACATGGACCGGTTTTCCCGGTAATCCGTATTTGCT (site CCGTTTACTAG) | 0 |
| CCGCCACCATGGACCGGTTTTCCCGGTAATCCGTATTTGAT (site CCGCCACCTAT) | 0.00762 |
| CCGCCGACATGGACCGGTTTTCCCGGTAATCCGTATTTGTT (site CCGCCGACTAA) | 0.275 |
| CCGCTACCATGGACCGGTTTTCCCGGTAATCCGTATTTGCT (site CAGCTACCTAG) | 0 |
| CCGCTACCATGGACCGGTTTTCCCGGTAATCCGTATTTGCT (site CCGCTACCTAG) | 0 |

| Sequence | recombinant UMI read abundance (log10) |
| --- | --- |
| CCGCTACCATGGACCGGTTTTCCCGGTAATCCGTATTTGCT (site CGGCTACCTAG) | 0 |
| CCGCTACCATGGACCGGTTTTCCCGGTAATCCGTATTTGCT (site CTGCTACCTAG) | 0.00224 |
| CCGCTAGCATGGACCGGTTTTCCCGGTAATCCGTATTTGTG (site CCGATAGCTCA) | 0.0148 |
| CCGCTAGCATGGACCGGTTTTCCCGGTAATCCGTATTTGTG (site CCGCTAGCTCA) | 0.337 |
| CCGCTAGCATGGACCGGTTTTCCCGGTAATCCGTATTTGTG (site CCGGTAGCTCA) | 0.0182 |
| CCGCTAGCATGGACCGGTTTTCCCGGTAATCCGTATTTGTG (site CCGTTAGCTCA) | 0 |
| CCGCTTACATGGACCGGTTTTCCCGGTAATCCGTATTTGCT (site CCGATTACTAG) | 0 |
| CCGCTTACATGGACCGGTTTTCCCGGTAATCCGTATTTGCT (site CCGCTTACTAG) | 1.48 |
| CCGCTTACATGGACCGGTTTTCCCGGTAATCCGTATTTGCT (site CCGGTTACTAG) | 0 |
| CCGCTTACATGGACCGGTTTTCCCGGTAATCCGTATTTGCT (site CCGTTTACTAG) | 0 |
| CCGCTTCCATGGACCGGTTTTCCCGGTAATCCGTATTTGTC (site CCGCTTCCTGA) | 0 |
| CCGCTTTCATGGACCGGTTTTCCCGGTAATCCGTATTTGAG (site CCGCTTTCTCT) | 0.19 |
| CCGGAAACATGGACCGGTTTTCCCGGTAATCCGTATTTGTT (site CCGGAAACTAA) | 1.15 |
| CCGGATCCATGGACCGGTTTTCCCGGTAATCCGTATTTGTT (site CCGGATCCTAA) | 0.556 |
| CCGGATCCATGGACCGGTTTTCCCGGTAATCCGTATTTGTT (site CGGAATCCTAA) | 0.00344 |
| CCGGCTACATGGACCGGTTTTCCCGGTAATCCGTATTTGAT (site CCGGCTACTAT) | 1.37 |
| CCGGGGCCATGGACCGGTTTTCCCGGTAATCCGTATTTGAT (site CCGGGGCCTAT) | 0.04 |
| CCGGGTGCATGGACCGGTTTTCCCGGTAATCCGTATTTGAT (site CCAGGTGCTAT) | 1.63 |
| CCGGGTGCATGGACCGGTTTTCCCGGTAATCCGTATTTGAT (site CCCGGTGCTAT) | 0.797 |
| CCGGGTGCATGGACCGGTTTTCCCGGTAATCCGTATTTGAT (site CCGGGTGCTAT) | 1.25 |
| CCGGGTGCATGGACCGGTTTTCCCGGTAATCCGTATTTGAT (site CCTGGTGCTAT) | 0.428 |
| CCGGGTTCATGGACCGGTTTTCCCGGTAATCCGTATTTGGC (site CCGGGTTCTGC) | 1.57 |
| CCGTCAACATGGACCGGTTTTCCCGGTAATCCGTATTTGCT (site CCGTCAACTAG) | 0 |
| CCGTCGCCATGGACCGGTTTTCCCGGTAATCCGTATTTGTC (site CCGTCGCCTGA) | 0 |
| CCGTTACCATGGACCGGTTTTCCCGGTAATCCGTATTTGAG (site CCGTTACCTCT) | 0.0156 |

| Sequence | recombinant UMI read abundance (log10) |
| --- | --- |
| CCGTTAGCATGGACCGGTTTTCCCGGTAATCCGTATTTGAG (site CCGTTAGCTCA) | 0.0714 |
| CCGTTAGCATGGACCGGTTTTCCCGGTAATCCGTATTTGAG (site CCGTTAGCTCC) | 0.006 |
| CCGTTAGCATGGACCGGTTTTCCCGGTAATCCGTATTTGAG (site CCGTTAGCTCG) | 0.00749 |
| CCGTTAGCATGGACCGGTTTTCCCGGTAATCCGTATTTGAG (site CCGTTAGCTCT) | 0.692 |
| CCGTTCGCATGGACCGGTTTTCCCGGTAATCCGTATTTGTG (site CCGTTAGCTCA) | 0.00765 |
| CCGTTCGCATGGACCGGTTTTCCCGGTAATCCGTATTTGTG (site CCGTTCGCTCA) | 0.0261 |
| CCGTTCGCATGGACCGGTTTTCCCGGTAATCCGTATTTGTG (site CCGTTGGCTCA) | 0.0144 |
| CCGTTCGCATGGACCGGTTTTCCCGGTAATCCGTATTTGTG (site CCGTTTGCTCA) | 0.00651 |
| CCGTTGGCATGGACCGGTTTTCCCGGTAATCCGTATTTGTG (site CCGTTAGCTCA) | 0.661 |
| CCGTTGGCATGGACCGGTTTTCCCGGTAATCCGTATTTGTG (site CCGTTCGCTCA) | 0.0171 |
| CCGTTGGCATGGACCGGTTTTCCCGGTAATCCGTATTTGTG (site CCGTTGGCTCA) | 0.286 |
| CCGTTGGCATGGACCGGTTTTCCCGGTAATCCGTATTTGTG (site CCGTTTGCTCA) | 0.00375 |
| CCGTTGTCATGGACCGGTTTTCCCGGTAATCCGTATTTGTC (site CCGTTGTCTGA) | 0 |
| CCGTTTACATGGACCGGTTTTCCCGGTAATCCGTATTTGAT (site CCGTTTACTAA) | 0.0556 |
| CCGTTTACATGGACCGGTTTTCCCGGTAATCCGTATTTGAT (site CCGTTTACTAC) | 0 |
| CCGTTTACATGGACCGGTTTTCCCGGTAATCCGTATTTGAT (site CCGTTTACTAG) | 0 |
| CCGTTTACATGGACCGGTTTTCCCGGTAATCCGTATTTGAT (site CCGTTTACTAT) | 0 |
| CCTAAAGCATGGACCGGTTTTCCCGGTAATCCGTATTTGAA (site CCTAAAGCTAT) | 0 |
| CCTAAAGCATGGACCGGTTTTCCCGGTAATCCGTATTTGAA (site CCTAAAGCTCT) | 0.00343 |
| CCTAAAGCATGGACCGGTTTTCCCGGTAATCCGTATTTGAA (site CCTAAAGCTGT) | 0 |
| CCTAAAGCATGGACCGGTTTTCCCGGTAATCCGTATTTGAA (site CCTAAAGCTTT) | 0.699 |
| CCTAAAGCATGGACCGGTTTTCCCGGTAATCCGTATTTGTT (site CCTAAAGCTAA) | 0.0032 |
| CCTAAAGCATGGACCGGTTTTCCCGGTAATCCGTATTTGTT (site CCTAAAGCTAC) | 0 |
| CCTAAAGCATGGACCGGTTTTCCCGGTAATCCGTATTTGTT (site CCTAAAGCTAG) | 0 |
| CCTAAAGCATGGACCGGTTTTCCCGGTAATCCGTATTTGTT (site CCTAAAGCTAT) | 0.00347 |
